# Test results reported in US20250222009A1, “DINUCLEAR GOLD(I) COMPLEXES FOR TREATING CANCER” (KING FAHD UNIVERSITY OF PETROLEUM AND MINERALS, priority 2024, published 2025).
# pIC50: −log10 of the molar value.
# Tests used:
# [1] = test system: A549-MCTSs; experiment: 3D-A549-MCTS viability (PrestoBlue); assay type: cell-based, human; conditions: 72 h, PrestoBlue, poly-HEMA coated wells
# Description: To obtain multiple spheroids, 10.0×10^4 A549 cells were seeded in non-adherent conditions on poly-HEMA coated 96 wells (final volume, 200 μL) for four days. After drug treatment (72 h), the cell viability was determined using PrestoBlue Cell Viability Reagent (Thermo Fisher Scientific, Frederick, MD, USA) (See: Casagrande, N.; Celegato, M.; Borghese, C.; Mongiat, M.; Colombatti, A.; Aldinucci, D. Preclinical Activity of the Liposomal Cisplatin Lipoplatin in Ovarian Cancer. Clin Cancer Res 2014, 20, 5496-5506, which is incorporated herein by reference in its entirety).
# 3D-MCTSs are a model for in vitro drug testing (See: Zanoni, M.; Piccinini, F.; Arienti, C.; Zamagni, A.; Santi, S.; Polico, R.; Bevilacqua, A.; Tesei, A. 3D Tumor Spheroid Models for in Vitro Therapeutic Screening: A Systematic Approach to Enhance the Biological Relevance of Data Obtained. Sci Rep 2016, 6, 19103, which is incorporated herein by reference in its entirety) and to test drug tissue penetration. Thus, the effects of complex 3 in A549-MCTSs were determined by cultivating tumor cells in non-adherent conditions on poly-HEMA coated wells. […] Representative micro-photographs of A549-MCTSs treated with complex 3 (0.3-5 μM) and with cisplatin (15-250 μM) are shown in FIG. 9C.
# [2] = test system: A2780cis (cisplatin-resistant clone of A2780); experiment: MTT cytotoxicity assay, A2780cis; assay type: cell-based, human
# Description: (§1) The human epithelial ovarian cancer A2780 cell line and its cisplatin-resistant clone A2780cis were obtained from Sigma-Aldrich (Milano, Italy). A2780cis cells were continuously exposed to 1 μM cisplatin to maintain cisplatin resistance. A549 cells (Human non-small cell lung cancer), MCF7 (metastatic breast cancer), PC3 (highly aggressive metastatic prostate cancer), and MG63 (osteosarcoma) were obtained from the American Type Culture Collection (ATCC). Cells were authenticated in laboratory using the PowerPlex 16 HS System. A2780, A2780cis, and PC3 cells were cultured in RPMI-1640 medium; MG63 and MCF7 cells were cultured in DMEM, and A549 cells were cultured in F12 NUT-MIX. The culture medium contained about 10% fetal bovine serum (FBS) (Gibco, Thermo Fisher Scientific, Monza, Italy), about 1% (v/v) of penicillin (10,000 units/mL)-streptomycin (10 mg/mL), and about 1% (v/v) L-glutamine (200 mM) (all from Sigma-Aldrich). Cells were cultured at 37° C. in a 5% CO2, fully humidified atmosphere.
# (§2) 2.5×10^3 (PC3, MG63, MCF7) or 4.0×10^3 (A2780, A2780cis, A549) cells were seeded in 96-well microplates in 100 μL culture medium. Cells, allowed to adhere for 24 h, were then treated in triplicate with increasing concentrations of gold compounds. Cisplatin was included as a reference drug. Cell viability was evaluated using 3-(4,5-dimethylthiazol-2-yl)-2,5-diphenyltetrazolium bromide (MTT) assay (Sigma-Aldrich) after 72 h of treatment. Half maximal inhibitory concentrations (IC50), IC25, and IC75 were calculated using the CalcuSyn software version 2 (Biosoft, Ferguson, MO, USA) (See: Chou, T. C.; Talalay, P. Quantitative Analysis of Dose-Effect Relationships: The Combined Effects of Multiple Drugs or Enzyme Inhibitors. Adv. Enzyme Regul. 1984, 22, 27-55, which is incorporated herein by reference in its entirety). Fold resistance was calculated as the ratio of the IC50 of the A2780cis to that of the parental cell line A2780. Alternatively, cell viability was assayed by crystal violet staining (See: Feoktistova, M.; Geserick, P.; Leverkus, M. Crystal Violet Assay for Determining Viability of Cultured Cells. Cold Spring Harb Protoc 2016, 2016, pdb.prot087379, which is incorporated herein by reference in its entirety). Alternatively, after drug treatment, the culture Medium was removed, cells washed, fixed, and stained, and the Crystal Violet solution lasted 20 minutes (See: Sulaiman, A. A. A.; Casagrande, N.; Borghese, C.; Corona, G.; Isab, A. A.; Ahmad, S.; Aldinucci, D.; Altaf M. Design, Synthesis, and Preclinical Activity in Ovarian Cancer Models of New Phosphanegold(I)—N-Heterocyclic Carbene Complexes. J Med Chem 2022, 65, 14424-14440, which is incorporated herein by reference in its entirety).
# [3] = test system: PC3 (androgen-resistant prostate cancer); experiment: MTT cytotoxicity assay, PC3; assay type: cell-based; conditions: 72 h, mean (SD)
# Description: as §1, §2
# [4] = test system: 20S proteasome; experiment: 20S Proteasome Activity Assay in treated cell lysates; assay type: cell-based, human; conditions: A549 cells treated 4 h
# Description: Cells were treated with complex 3 (4 h), and then cells were lysed in 50 mM Tris-HCl pH 7.6, 0.1% Triton X-100, 0.9% NaCl to obtain the Proteasome activity (EC 3.4.25.1). The proteasome activity was tested using the 20S Proteasome Activity Assay kit APT280 (Merck Millipore) and a computer-interfaced GeniusPlus microplate reader (Tecan Trading AG, Switzerland). The activity was normalized to the protein concentration and expressed as a percentage of control (untreated cells).
structure (smiles),measurement,setting,value
"CC(C)c1cccc(C(C)C)c1-n1ccn(-c2c(C(C)C)cccc2C(C)C)[c]1=[Au-][P+](CCNCC[P+]([Au-]=[c]1n(-c2c(C(C)C)cccc2C(C)C)ccn1-c1c(C(C)C)cccc1C(C)C)(C1CCCCC1)C1CCCCC1)(C1CCCCC1)C1CCCCC1 [Complex 3, [(Au(IPr))2(C28H24P2)](PF6)2]",pIC50,[1],6.02
same,Fold resistance (A2780cis/A2780),[2]; IC50 A2780cis/IC50 A2780,2.19
same,pIC50,"[2]; MTT, 72 h, mean, SD in next cell",6.62
same,pIC50,[3],6.62
same,20S proteasome activity,[4],inhibited in a dose-dependent manner
